Molecular target: human complement factor B (CVF-Bb complex) (Homo sapiens (Human), UniProt P00751)
Test: Human Complement Factor B ELISA Assay
Type: biochemical
Details: CVF-Bb complex 3 nM, 1 hour preincubation with compound at room temperature, human C3 substrate 1 μM, C3a quantified by ELISA; read-out: Factor B IC50
Outline: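 Preformed CVF-Bb complex (3 nM; cobra venom factor with recombinant human factors B and D) preincubated with compound 1 h, RT, in PBS pH 7.4, 10 mM MgCl2, 0.05% CHAPS. Plasma C3 added at 1 μM final for 1 h, then stopped; C3a product measured by ELISA, IC50 from % inhibition.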

For `[2H]C([2H])([2H])C([2H])([2H])N[C@H](CC(=O)N1CCN(c2nc(N)c3cc(OC)c(OC)c(F)c3n2)CC1)c1ccc(F)cc1` [Example 131, (R)-1-(4-(4-amino-8-fluoro-6,7-dimethoxyquinazolin-2-yl)piperazin-1-yl)-3-(1,1,2,2,2-d^5 ethylamino)-3-(4-fluorophenyl)propan-1-one], the IC50 was 3 nM.

— patent US9452990B2, “Complement pathway modulators and uses thereof” (NOVARTIS AG, priority 2012, dated 2016)
